Test results: article PMC12758957 (Thrombosis and Haemostasis, 2025)

Tests used:
FXa = test system: FXa; set-up: method as in PMID 28904343, PMID 38729577; settings: S4 subsite modified FXa variants; cited from earlier work
[1] = target: T1, prothrombinase-activated wild-type prothrombin (Homo sapiens, UniProt P00734); experiment: Inhibition of pNAPEP-0238 peptidyl substrate conversion in a purified system; format: biochemical; settings: wild-type thrombin, observed vs reported (ref 41)
Protocol: (§1) Prothrombin variants were activated to thrombin by prothrombinase immediately prior to analyses. Reaction mixtures of prothrombin variant (1 μM) and preassembled prothrombinase (2 nM FXa, 2 nM FV-810, and 50 μM phospholipid TGT, final concentrations) were incubated for 30 minutes at 25°C in assay buffer, upon which the reaction was quenched in dilution buffer supplemented with 50 mM EDTA.

[2] = target: T1, prothrombinase-activated wild-type prothrombin; settings: 1 μM dabigatran
Protocol: Fibrinogen conversion was determined employing a turbidity assay. […] Turbidity was measured for 1 hour at 25°C and 350 nm.

thrombin = settings: read-out: reported IC50, peak thrombin formation; cited from earlier work
[3] = target: prothrombinase-activated prothrombin-KL3; format: biochemical, human
Protocol: as §1

wild-type thrombin = settings: read-out: reported K i, substrate conversion; cited from earlier work

In the case of `COc1ccc(-n2nc(C(N)=O)c3c2C(=O)N(c2ccc(N4CCCCC4=O)cc2)CC3)cc1` [apixaban], the “hindered FXa active site engagement by inhibitor” value (FXa) is listed as at most 800 fold.

With `CC1CNc2c(cccc2S(=O)(=O)N[C@@H](CCCNC(=N)N)C(=O)N2CC[C@@H](C)C[C@@H]2C(=O)O)C1` (some centres unmarked) [Argatroban] the “lower K i value observed versus reported” value [1] was 13 fold.

For `O=C(NC[C@H]1CN(c2ccc(N3CCOCC3=O)cc2)C(=O)O1)c1ccc(Cl)s1` [rivaroxaban], the “hindered FXa active site engagement by inhibitor” value (FXa) is given as at most 800 fold.

In the case of `[H]/N=C(/N)c1ccc(NCc2nc3cc(C(=O)N(CCC(=O)O)c4ccccn4)ccc3n2C)cc1` [Dabigatran], the “fibrinogen conversion by activated wild-type prothrombin (in words)” value [2] is given as “no detectable fibrinogen conversion”, the IC50 (thrombin) is given as […] and the IC50 ([3]; 5 nM prothrombinase-activated KL3, 50 μM pNAPEP-0238, read-out: IC50, pNAPEP-0238 conversion) is given as 237 ± 33 nM. For the same compound, the Ki ([3]; KL3, Cheng-Prusoff equation) was 150 nM and the Ki (wild-type thrombin) was 5 nM.
